The results in this text go back to patent US20070248668A1, “Pharmaceutical compositions and uses thereof” (priority 2006, published 2007).

Series [1] in a line: Pharmacokinetics after single peroral 5 mg rifalazil, fed and fasted. The format is in vivo. To be noted: liquid-filled vs microgranulated, beagle dogs. Here is the method: Pharmacokinetic parameters were determined following a single peroral administration of 5 mg of rifalazil in healthy male beagle dogs. The rifalazil was formulated either as a liquid-filled capsule of Example 5 or as a powder-filled capsule containing microgranulated rifalazil as described in U.S. Pat. No. 5,547,683.
Both formulations were administered under fed and fasted conditions. All animals were fasted overnight prior to dosing. Animals designated as “fed” were administered a blended combination of dog chow and water in a 1:3 ratio (e.g. 250 g chow and 750 g water) via oral gavage at a dose volume of 20 mL/kg within approximately 30 minutes prior to dosing and food was provided Ad-libitum after approximately 4 hours following dosing. Animals in “fasted” groups were not fed prior to dosing and food was withheld until after approximately 4 hours after dosing. […]
Pharmacokinetic endpoints and parameters were calculated by noncompartmental analysis (NCA) using WinNonlin®.
The pharmacokinetic parameters Tmax, Cmax, AUCt, AUC∞, T1/2 (elimination), and F (bioavailability) were calculated as well as the coefficient of variation (CV) in each. […]

Series [2] can be described thus: Rifalazil solubility in surfactants and surfactant mixtures. It is filed as physicochemical. To be noted: thermodynamic from solid. Here is the method:
The solubility of rifalazil in various surfactants and surfactant mixtures was measured. Excess Rifalazil, drug substance, was equilibrated with the excipient or excipient blend at the indicated temperature for 24 hrs under constant mixing. At the end of the equilibration time, insoluble drug was removed by centrifugation and the supernatant was assayed by UV spectroscopy and/or HPLC to determine the concentration of Rifalazil.

Values after ≈ are worked out from the molar mass of the structure shown.

Turning to `CO[C@H]1/C=C/O[C@@]2(C)Oc3c(C)c(O)c4c(=O)c(c5oc6cc(N7CCN(CC(C)C)CC7)cc(O)c6nc-5c4c3C2=O)NC(=O)/C(C)=C\C=C\[C@H](C)[C@H](O)[C@@H](C)[C@@H](O)[C@@H](C)[C@H](OC(C)=O)[C@@H]1C` [Rifalazil], the “effect of changes in the formulation upon the elimination half-life (T1/2)” value in series [1] is “no effect”. Also, the solubility (as a rule, the dissolved amount per volume that the medium holds) at 24 h in series [2] (Formulation M1 (excipient blend), aqueous with cosolvent or surfactant or cyclodextrin, in Formulation M1, 24 hrs equilibration) came to 15.5 mg/mL (≈ 16.5 mM); in series [2] (Formulation M3 (excipient blend), aqueous with cosolvent or surfactant or cyclodextrin, in Formulation M3, 24 hrs equilibration), 25.8 mg/mL (≈ 27.4 mM); in series [2] (Formulation M4 (excipient blend), aqueous with cosolvent or surfactant or cyclodextrin, in Formulation M4, 24 hrs equilibration) it was 34.1 mg/mL (≈ 36.2 mM); in series [2] (Formulation M5 (excipient blend), aqueous with cosolvent or surfactant or cyclodextrin, in Formulation M5, 24 hrs equilibration) it was 28.4 mg/mL (≈ 30.1 mM); in series [2] (Formulation M6 (excipient blend), aqueous with cosolvent or surfactant or cyclodextrin, in Formulation M6, 24 hrs equilibration), 30.8 mg/mL (≈ 32.8 mM); in series [2] (Formulation M8 (excipient blend), aqueous with cosolvent or surfactant or cyclodextrin, in Formulation M8, 24 hrs equilibration), 26.9 mg/mL (≈ 28.6 mM). In addition, the solubility at 24 h in series [2] (Formulation M9 (excipient blend), aqueous with cosolvent or surfactant or cyclodextrin, in Formulation M9, 24 hrs equilibration) amounted to 19.6 mg/mL (≈ 20.8 mM); in series [2] (Formulation M10 (excipient blend), aqueous with cosolvent or surfactant or cyclodextrin, in Formulation M10, 24 hrs equilibration) it was 36.9 mg/mL (≈ 39.2 mM); in series [2] (Formulations A and B (excipient blend), aqueous with cosolvent or surfactant or cyclodextrin, in Formulations A and B, 24 hrs equilibration) it was 23 mg/mL (≈ 24.4 mM); in series [2] (Formulations C and D (excipient blend), aqueous with cosolvent or surfactant or cyclodextrin, in Formulations C and D, 24 hrs equilibration) it was 21 mg/mL (≈ 22.3 mM); in series [2] (aqueous with cosolvent or surfactant or cyclodextrin, in Cremophor ELP, 24 hrs equilibration at 37° C.), 35 mg/mL (≈ 37.2 mM); in series [2] (aqueous with cosolvent or surfactant or cyclodextrin, in Cremophor RH40, 24 hrs equilibration at 37° C.) it was 23 mg/mL (≈ 24.4 mM). Besides, the solubility at 24 h worked out at 41.6 mg/mL (≈ 44.2 mM) in series [2] (aqueous with cosolvent or surfactant or cyclodextrin, in Labrafil M 1944 CS, 24 hrs equilibration); 29 mg/mL (≈ 30.8 mM) in series [2] (aqueous with cosolvent or surfactant or cyclodextrin, in Labrafil M 19944 CS:Etocas 35 (5:1), 24 hrs equilibration); 23 mg/mL (≈ 24.4 mM) in series [2] (aqueous with cosolvent or surfactant or cyclodextrin, in Labrasol, 24 hrs equilibration); 40 mg/mL (≈ 42.5 mM) in series [2] (aqueous with cosolvent or surfactant or cyclodextrin, in Lauroglycol 90, 24 hrs equilibration); 22 mg/mL (≈ 23.4 mM) in series [2] (aqueous with cosolvent or surfactant or cyclodextrin, in TPGS, 24 hrs equilibration at 37° C.); 59 mg/mL (≈ 62.7 mM) in series [2] (oil or lipid, in Oleic Acid, 24 hrs equilibration). In addition, the solubility at 24 h was found to be 14 mg/mL (≈ 14.9 mM) in series [2] (oil or lipid, in Peceol, 24 hrs equilibration); 8 mg/mL (≈ 8.5 mM) in series [2] (organic solvent or mixture, in PEG 400, 24 hrs equilibration); 62 mg/mL (≈ 65.9 mM) in series [2] (organic solvent or mixture, in PEG 1500, equilibration at 60° C. to melt PEG 1500).
